Assay: solvent given as SMILES

C(#Cc1ccccc1)C(C#Cc1ccccc1)=Cc1cccc(C=C(C#Cc2ccccc2)C#Cc2ccccc2)c1 showed an emission maximum (in ClC(Cl)Cl) of 413 nm.

For c1ccc2c3c(ccc2c1)-c1cccc2cc4ccccc4c-3c12, the emission maximum (in CCCCCCC) was 610 nm.

Work on C(#Cc1ccncc1)C(C#Cc1ccncc1)=Cc1ccc(C=C(C#Cc2ccncc2)C#Cc2ccncc2)cc1 yielded an emission maximum (in ClC(Cl)Cl) of 472 nm.

Work on CCCCCCCCCCCCN1C(=O)c2c(c3ccc4cc(-c5ccc(C#N)cc5)c(OC)cc4c3c3c2ccc2cc(-c4ccc(C#N)cc4)c(OC)cc23)C1=O yielded an emission maximum (in ClCCl) of 520 nm.

COc1ccc(-c2ccc(C(=O)NC(C)(C)C)c3c2ccc2c4ccccc4c4ccccc4c23)cc1 gave an emission maximum (in ClCCl) of 420 nm.

For [O-][n+]1c(-c2ccc(Br)cc2)cc(N2CCOCC2)nc1/C=C/c1ccccc1, the emission maximum (in ClCCl) was 548 nm.

With CCCCCCCCCn1c(-c2cc(-c3nc4ccccc4n3CCCCCCCCC)cc(-c3nc4ccccc4n3CCCCCCCCC)c2)nc2ccccc21 the emission maximum (in C1CCOC1) was 361.1 nm.

Work on NC(=O)C1=CN([C@H]2C[C@H](O)[C@@H](COP(=O)([O-])OP(=O)([O-])OC[C@H]3O[C@@H](n4cnc5c(N)ncnc54)C[C@@H]3O)O2)C=CC1 yielded an emission maximum (in O) of 450 nm.

COc1ccc(-c2ccc3c(c2)c2cc(-c4ccc(OC)cc4)ccc2n3-c2ccc(C(=O)c3ccc4sc5ccccc5c4c3)nc2)cc1 showed an emission maximum (in Cc1ccccc1) of 487.2 nm and an emission maximum (in c1cc(-n2c3ccccc3c3ccccc32)cc(-n2c3ccccc3c3ccccc32)c1) of 493 nm.

Work on COC(=O)c1nc(Cl)c(-c2ccccc2)o1 yielded an emission maximum (in C1CCCCC1) of 344 nm.

COc1ccc(/C=C/c2ccccc2)cc1 gave an emission maximum (in C1CCCCC1) of 364 nm, an emission maximum (in CC#N) of 374 nm and an emission maximum (in CC(C)O) of 365 nm. For the same molecule, the emission maximum (in CCCCOCCCC) was 367 nm, the emission maximum (in CCOC(C)=O) was 366 nm and the emission maximum (in CCOCC) was 366 nm.

With Oc1ccccc1-c1nc2c3cccnc3c3ncccc3c2n1-c1ccccc1 the emission maximum (in Cc1ccccc1) was 379 nm.

With NS(=O)(=O)c1ccc(N2N=C(c3ccc(O)cc3)CC2c2ccc(Cl)cc2)cc1 (stereo not given) the emission maximum (in C1CCOC1) was 418 nm, the emission maximum (in C1COCCO1) was 417 nm and the emission maximum (in CC#N) was 417 nm. For the same molecule, the emission maximum (in CC(C)O) was 423 nm, the emission maximum (in CCO) was 427 nm and the emission maximum (in CCOC(C)=O) was 416 nm. It also gave an emission maximum (in CN(C)C=O) of 422 nm, an emission maximum (in CO) of 431 nm and an emission maximum (in CS(C)=O) of 424 nm. For the same molecule, the emission maximum (in O) was 448 nm.

Cc1ccsc1-c1ccc(-c2ccc(-c3sccc3C)s2)s1 showed an emission maximum (in CCCCCCCCCCCCCC) of 473 nm.

In the case of O=c1[nH]c2ccccc2[nH]1, the emission maximum (in C1CCOC1) is reported as 315 nm, the emission maximum (in CC#N) is reported as 313.01 nm and the emission maximum (in CC(C)=O) is reported as 307 nm. The emission maximum (in CCCCCCC) was 297 nm, the emission maximum (in CCCCCl) was 302 nm and the emission maximum (in CCCCO) was 311 nm. For the same molecule, the emission maximum (in CCCO) was 310 nm, the emission maximum (in CCCOCCC) was 310 nm and the emission maximum (in CCO) was 310 nm.

CCOC(=O)CSc1nc2c(c(C#N)c1C#N)CCCCCC2 showed an emission maximum (in c1ccccc1) of 408 nm.

Cc1cc(-c2ccc(-c3n(C)c4ccccc4[n+]3C)cc2)ccc1-c1ccc(-c2n(C)c3ccccc3[n+]2C)cc1 showed an emission maximum (in O) of 399 nm.

COC1=[N+]2C(=C(c3ccccc3)c3ccc(OC)n3[B-]2(F)F)C=C1SC#N showed an emission maximum (in CC#N) of 539 nm, an emission maximum (in CCCCCC) of 542 nm and an emission maximum (in CCOC(C)=O) of 543 nm. The emission maximum (in CO) was 540 nm and the emission maximum (in ClCCl) was 543 nm.

c1ccc2c(c1)Sc1ccccc1N2c1ccc2c(c1)C1(CCCC1)c1cc(N3c4ccccc4Sc4ccccc43)ccc1-2 gave an emission maximum (in Cc1ccccc1) of 491 nm.

In the case of COc1ccc(C#Cc2ccc(C#N)cc2)cc1OC, the emission maximum (in C1COCCO1) is reported as 400 nm, the emission maximum (in CC#N) is reported as 451 nm and the emission maximum (in CCCCCC) is reported as 346 nm. For the same molecule, the emission maximum (in CCCCCCC) was 347 nm, the emission maximum (in CCCO) was 425 nm and the emission maximum (in CCOC(C)=O) was 408 nm. It also gave an emission maximum (in CS(C)=O) of 462 nm, an emission maximum (in ClC(Cl)Cl) of 404 nm and an emission maximum (in ClCCl) of 417 nm.

In the case of CC(O)CC1=N/C(=C\c2cccc(N(C)C)c2)C(=O)N1C (stereo not given), the emission maximum (in C1CCOC1) is reported as 585 nm, the emission maximum (in CC#N) is reported as 642 nm and the emission maximum (in CCCCCC) is reported as 506 nm.

With [O-][n+]1c(/C=C/c2cccs2)nc(N2CCOCC2)c2c1CCCC2 the emission maximum (in ClCCl) was 534 nm.

COC(=O)c1ccc(/C=C2\N=C(c3ccccc3)NC2=O)cc1 gave an emission maximum (in C1COCCO1) of 461 nm.

Work on CN(/N=C1\N=C(N)C2(CCCC2)c2ccccc21)c1ccccc1 yielded an emission maximum (in ClCCl) of 471 nm.

For COC(=O)c1ccc(/C=C2\N=C(c3ccc([N+](=O)[O-])cc3)NC2=O)cc1, the emission maximum (in C1COCCO1) was 510 nm.

With CC1=CC(/C=C/c2ccc(C)cc2)=[N+]2C1=C(c1ccccc1)c1c(C)cc(/C=C/c3ccc(C)cc3)n1[B-]2(F)F the emission maximum (in CC1CCCO1) was 645 nm.

COc1ccc(C2CC(c3ccc(O)cc3)=NN2c2ccc(S(N)(=O)=O)cc2)cc1 (stereo not given) gave an emission maximum (in C1CCOC1) of 417 nm, an emission maximum (in C1COCCO1) of 418 nm and an emission maximum (in CC#N) of 418 nm. The emission maximum (in CC(C)O) was 423 nm, the emission maximum (in CCO) was 429 nm and the emission maximum (in CCOC(C)=O) was 416 nm. For the same molecule, the emission maximum (in CN(C)C=O) was 422 nm, the emission maximum (in CO) was 432 nm and the emission maximum (in CS(C)=O) was 425 nm. The emission maximum (in O) was 448 nm.

c1ccc(-c2cc(-c3ccccc3)cc(-c3ccc4c(c3)C3(c5ccccc5-4)c4ccccc4-c4c3c3c5ccccc5c(-c5cc(-c6ccccc6)cc(-c6ccccc6)c5)cc3c3ccccc43)c2)cc1 (stereo not given) gave an emission maximum (in C1CCOC1) of 440 nm.

Work on CC(C)(C)c1cc2ccc3c(-c4ccc(N(c5ccccc5)c5ccccc5)cc4)ccc4c5nc6cc(C#N)c(C#N)cc6nc5c(c1)c2c34 yielded an emission maximum (in C1CCOC1) of 839.18 nm, an emission maximum (in CCCCCC) of 575.31 nm and an emission maximum (in Cc1ccccc1) of 613 nm. It also gave an emission maximum (in ClC(Cl)Cl) of 784.69 nm and an emission maximum (in ClCCl) of 839.18 nm.

With COc1ccc(OC)c(C(C)=O)c1 the emission maximum (in CO) was 449 nm.

CCCCn1c(-c2ccc(-c3nnc(-c4ccc(-c5nc(-c6ccccc6)c(-c6ccccc6)n5CCCC)cc4)o3)cc2)nc(-c2ccccc2)c1-c1ccccc1 gave an emission maximum (in ClCCl) of 445 nm.

With Cc1c2ccc(=[N+]3CCCCC3)cc-2oc2cc(N3CCCCC3)ccc12 the emission maximum (in ClCCl) was 570 nm.

For OCCSc1cccc2[n+]1[B-](F)(F)n1c(c3cccc4cccc1c43)=N2, the emission maximum (in C1CCOC1) was 505 nm, the emission maximum (in CC#N) was 502 nm and the emission maximum (in CCCCCC) was 497 nm. It also gave an emission maximum (in Cc1ccccc1) of 505 nm and an emission maximum (in ClCCl) of 501 nm.

CCCCCCOc1ccc(N(c2ccc(OCCCCCC)cc2)c2ccc(-c3sc(-c4ccc(N(c5ccc(OCCCCCC)cc5)c5ccc(OCCCCCC)cc5)cc4)c4nc(-c5ccc(OC)cc5)c(-c5ccc(OC)cc5)nc34)cc2)cc1 gave an emission maximum (in ClCCl) of 752 nm.

Work on CC(C)(C)c1ccc2c(c1)c1cc(C(C)(C)C)ccc1n2-c1cccs1 yielded an emission maximum (in ClCCl) of 368 nm.

For CCCCOc1ccc2cc(-c3ccc(C)cc3)c(=O)oc2c1, the emission maximum (in C1CCOC1) was 423 nm, the emission maximum (in CCCCCC) was 416 nm and the emission maximum (in CCO) was 429 nm. For the same molecule, the emission maximum (in CS(C)=O) was 431 nm.

In the case of CCOC(=O)c1c(-c2cc3ccc(OC)cc3oc2=O)nn(-c2cccc(C)c2)c1C(=O)OCC, the emission maximum (in ClCCl) is reported as 422 nm.

CC1(CCCCC(=O)NCCCCCCO)C(/C=C/C=C/C=C2/N(CCCS(=O)(=O)[O-])c3ccc(S(=O)(=O)[O-])cc3C2(C)C)=[N+](CCCS(=O)(=O)[O-])c2ccc(S(=O)(=O)[O-])cc21 (stereo not given) gave an emission maximum (in O) of 672 nm.

With CCOC(=O)c1sc2nc(-c3ccccc3)c(C)c(C#N)c2c1N the emission maximum (in C1COCCO1) was 554 nm, the emission maximum (in CC#N) was 570 nm and the emission maximum (in CCO) was 580 nm. For the same molecule, the emission maximum (in CCOC(C)=O) was 558 nm, the emission maximum (in ClC(Cl)Cl) was 550 nm and the emission maximum (in c1ccccc1) was 549 nm.

For Cc1sc(-c2ccc(-c3nc(-c4ccccc4)c(-c4ccccc4)[nH]3)cc2)c(C)c1C1=C(c2c(C)n(C)c3ccccc23)C(F)(F)C(F)(F)C1(F)F, the emission maximum (in C1CCOC1) was 392 nm.

For CC(C)(C)c1ccc(-c2cc(-c3ccc(-c4cc(-c5ccc(C(C)(C)C)cc5)c(C(=O)NCc5cccs5)s4)s3)sc2C(=O)NCc2cccs2)cc1, the emission maximum (in ClCCl) was 450 nm.

CCCCC1(CCCC)c2cc(C#Cc3ccc(C=C(c4ccccc4)c4ccccc4)cc3)ccc2-c2ccc(C#Cc3ccc(C=C(c4ccccc4)c4ccccc4)cc3)cc21 showed an emission maximum (in C1CCOC1) of 416 nm.

With CCn1c2ccccc2c2cc(/C=C/c3cccc[n+]3CCCS(=O)(=O)[O-])ccc21 the emission maximum (in C1CCOC1) was 559 nm, the emission maximum (in CC#N) was 565 nm and the emission maximum (in CC(C)=O) was 565 nm. For the same molecule, the emission maximum (in Cc1ccccc1) was 590 nm.

Molecule C(#Cc1cnc(C#Cc2ccccc2)nc1)c1ccccc1 has an emission maximum (in C1CCCCC1) of 425 nm.

Work on O=S(=O)([O-])c1ccccc1/C=C/c1ccc(-c2nnc(-c3ccc(/C=C/c4ccccc4S(=O)(=O)[O-])cc3)o2)cc1 yielded an emission maximum (in C1CCOC1) of 415 nm, an emission maximum (in CC(C)=O) of 416 nm and an emission maximum (in CN(C)C=O) of 422 nm.

Molecule c1cc2ccc1-c1ccc(cc1)-c1ccc([se]1)-c1ccc(cc1)-c1ccc(cc1)-c1ccc([se]1)-c1ccc(cc1)-c1ccc(cc1)-c1ccc([se]1)-c1ccc(cc1)-c1ccc(cc1)-c1ccc-2[se]1 has an emission maximum (in C1CCOC1) of 492 nm.

Work on c1ccc(N(c2ccccc2)c2c3ccccc3c(N(c3ccccc3)c3ccccc3)c3ccccc23)cc1 yielded an emission maximum (in Cc1ccccc1) of 510 nm.

Molecule c1ccc(-c2nc3ccccc3nc2-c2ccc(-n3c4ccccc4c4ccccc43)cc2)cc1 has an emission maximum (in Cc1ccccc1) of 434 nm.

In the case of Cc1c2oc3c(C)c(N)cc(C(=O)NC4OC(=O)C(C(C)C)N(C)C(=O)CN(C)C(=O)C5CCCN5C(=O)C(C(C)C)NC4=O)c3nc-2c(C(=O)NC2OC(=O)C(C(C)C)N(C)C(=O)CN(C)C(=O)C3CCCN3C(=O)C(C(C)C)NC2=O)c(N)c1=O (stereo not given), the emission maximum (in C1CCOC1) is reported as 608.36 nm, the emission maximum (in CC#N) is reported as 634.41 nm and the emission maximum (in CC(=O)O) is reported as 638.86 nm. It also gave an emission maximum (in CC(C)=O) of 609.72 nm, an emission maximum (in CCCCO) of 669.51 nm and an emission maximum (in CCCCOC(C)=O) of 624.05 nm. It also gave an emission maximum (in CCCO) of 658.62 nm, an emission maximum (in CCN(CC)CC) of 597.77 nm and an emission maximum (in CCO) of 669 nm. It also gave an emission maximum (in CCOC(C)=O) of 598.75 nm, an emission maximum (in CN(C)C=O) of 640.78 nm and an emission maximum (in CO) of 673.84 nm. For the same molecule, the emission maximum (in CS(C)=O) was 637.01 nm, the emission maximum (in Cc1ccccc1) was 613.07 nm and the emission maximum (in ClC(Cl)Cl) was 620.11 nm. For the same molecule, the emission maximum (in ClCCCl) was 609.65 nm, the emission maximum (in O) was 674.17 nm and the emission maximum (in O=[N+]([O-])c1ccccc1) was 623.24 nm. The emission maximum (in c1ccccc1) was 621.25 nm and the emission maximum (in c1ccncc1) was 648.07 nm.

Reference: the Deep4Chem optical property database
